Reference: US6150365A, “Anxiety method” (priority 2000, dated 2000)
Entries after “also recorded” stand apart in the source; their conditions may differ. Like-named read-outs stand apart in the source and are kept apart here.

What was measured:
[1] = target: T1, human 5-HT1A receptor (Homo sapiens, UniProt P08908); experiment: 5-HT1A receptor binding assay (3H-8-OH-DPAT)
T1 construct: expressed in transfected cells; host or cells: HEK293
T1 sequence (P08908 1-422): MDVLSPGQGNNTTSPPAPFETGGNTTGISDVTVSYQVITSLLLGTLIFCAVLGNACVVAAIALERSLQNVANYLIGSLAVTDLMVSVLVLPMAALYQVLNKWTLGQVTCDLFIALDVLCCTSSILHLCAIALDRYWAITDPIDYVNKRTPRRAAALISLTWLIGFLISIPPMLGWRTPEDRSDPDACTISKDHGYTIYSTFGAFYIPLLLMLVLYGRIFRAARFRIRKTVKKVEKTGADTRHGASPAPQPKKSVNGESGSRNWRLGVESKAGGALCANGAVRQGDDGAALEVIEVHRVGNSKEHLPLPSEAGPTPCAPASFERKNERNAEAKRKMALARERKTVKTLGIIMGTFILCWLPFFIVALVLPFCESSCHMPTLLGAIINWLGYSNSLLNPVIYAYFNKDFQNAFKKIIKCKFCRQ

[2] = test system: dorsal raphe neurons; conditions: systemic administration (I.V. and intragastric for metabolites), rats; cited from earlier work
[3] = cited from earlier work
[4] = cited from earlier work; remark: listed apart in the source
[5] = test system: rat pup ultrasonic vocalization; experiment: Rat pup isolation-induced ultrasonic vocalization test; format: in vivo, rat (Harlan Sprague-Dawley pups); conditions: for suppression of rat pup ultrasonic vocalization: 0.03-1 mg/kg, cold plate; for suppression of rat pup ultrasonic vocalization / ED50: sc, 30 min prior to test; for ED50: Rattus norvegicus, 0.5 h, doses refer to weight of the salt, read-out: ID50, dose predicted to reduce the number of calls by 50%; for anxiolytic activity in rat pup isolation-induced ultrasonic vocalization model (in words): in vivo
[6] = test system: rat pup locomotor activity; experiment: Locomotor activity (grid cell crossings) in the rat pup; format: in vivo, rat (Harlan Sprague-Dawley pups); conditions: sc; for locomotor activity (in words): 0.03-1 mg/kg
[7] = Human pharmacokinetic study, multiple oral buspirone doses (25 days); format: in vivo
Text: The human dosing schedule is shown below. |______________________________________ […] | Interval BID Dose (mg) (Study Day) |______________________________________ […] | 3 15 15 […] | 5 30 25 |______________________________________

[8] = Modified Vogel Conflict test; format: in vivo; conditions: earlier in-house testing
Text: Earlier in-house functional testing of BMY 28674 utilized an in vivo test method based on modification of the Vogel Conflict test, a simple reliable conflict procedure for testing antianxiety agents (see: Vogel, et al., Psychopharmacologia, (Berl.) 21, pp. 1-7, 1971). […] No useful antianxiety activity has been ascribed to BMY 28674 previously.

[9] = Previous laboratory testing for antianxiety properties; conditions: laboratory methods developed for azapirone compounds

| Structure (SMILES) | affinity for human 5-HT1A receptor (in words) [1] | inhibition of dorsal raphe neuronal firing [2] | suppression of rat pup ultrasonic vocalization [5] | ED50 [5] [mg/kg] | anxiolytic activity in rat pup isolation-induced ultrasonic vocalization model (in words) [5] | locomotor activity (in words) ([6]; 30 min prior to test) | other results |
| --- | --- | --- | --- | --- | --- | --- | --- |
| c1cnc(N2CCNCC2)nc1 [1-PP, 1-(2-pyrimidinyl)piperazine] | does not demonstrate binding | weak inhibition | – | – | – | – | anxiogenic properties in other behavioral testing paradigms ([3]; Cervo et al., 1988, Martin, 1991): displayed anxiogenic properties; antianxiety activity in certain other preclinical tests ([3]; U.S. Pat. No. 4,409,223): some antianxiety activity |
| Oc1cnc(N2CCNCC2)nc1 [5-hydroxy-1PP, reference compound] | – | – | – | – | – | – | abundance as metabolite in human urine ([4]; in vivo): most |
| O=C1CC2(CCCC2)C(O)C(=O)N1CCCCN1CCN(c2ncccn2)CC1 (stereo not drawn) [BMY 28674, 6-hydroxy-8-[4-[4-(2-pyrimidinyl)-piperazinyl]-butyl]-8-azaspiro[4.5]-7,9-dione] | binding affinity that approaches that of buspirone; also recorded: binding affinity closer to that of buspirone | – | dose-dependent suppression | 0.13 | anxiolytic-like activity | significantly impaired | doses for anxiolytic activity relative to those required to suppress motor activity ([5]; vs suppression of motor activity): much lower doses; ED50 ([6]; Rattus norvegicus, 0.5 h, 30 min prior to test, doses refer to weight of the salt, read-out: ID50 dose estimated to reduce locomotor activity): 0.41 mg/kg; ratio of doses impairing locomotor activity to doses suppressing ultrasonic calls ([6]; locomotor vs ultrasonic calls, 30 min): approximately 3 fold; blood concentration relative to 1-PP ([7]; after oral buspirone, BMY 28674 vs 1-PP): several-fold greater; also recorded: several-fold higher; blood levels compared to buspirone (in words) ([7]; oral buspirone BID, 12-hour dosing period): much higher and are sustained compared to buspirone; antianxiety response in the Vogel test [8]: did not elicit an antianxiety response; abundance as metabolite in human urine ([4]; after buspirone): second most abundant metabolite; antianxiety activity in previous testing [9]: no anxiolytic activity was detected; also recorded: No significant antianxiety activity |
| O=C1CC2(CCCC2)CC(=O)N1CCCCN1CCN(c2ncccn2)CC1 [Buspirone, reference compound] | – | potently inhibits | dose-dependent suppression | 0.1 | anxiolytic-like activity | impaired | concentration at 2 h ([7]; human, in vivo, po): < 1 ng/mL |
